Assay results: patent US20220089575A1, “FARNESOID X RECEPTOR AGONISTS AND USES THEREOF” (Metacrine, Inc., priority 2017, published 2022)

Target: T1, hFXR (Homo sapiens, UniProt Q96RI1)
T1 construct: expressed in transfected cells; host or cells: CV-1 cells
T1 sequence (Q96RI1 1-486): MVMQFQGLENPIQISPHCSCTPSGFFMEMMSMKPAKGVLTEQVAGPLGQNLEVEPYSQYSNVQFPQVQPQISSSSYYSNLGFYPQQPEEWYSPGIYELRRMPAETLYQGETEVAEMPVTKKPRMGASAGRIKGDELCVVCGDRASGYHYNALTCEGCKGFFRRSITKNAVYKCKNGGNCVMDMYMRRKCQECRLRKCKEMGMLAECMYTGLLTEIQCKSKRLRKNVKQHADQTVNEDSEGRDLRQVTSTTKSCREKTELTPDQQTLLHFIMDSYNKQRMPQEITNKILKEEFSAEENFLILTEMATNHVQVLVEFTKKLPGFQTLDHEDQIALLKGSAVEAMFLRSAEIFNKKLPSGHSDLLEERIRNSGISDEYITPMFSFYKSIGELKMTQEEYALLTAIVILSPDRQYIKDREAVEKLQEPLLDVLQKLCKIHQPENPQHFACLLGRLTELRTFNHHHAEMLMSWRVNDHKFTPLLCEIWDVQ
T1 sequence (P19793 1-462 partner): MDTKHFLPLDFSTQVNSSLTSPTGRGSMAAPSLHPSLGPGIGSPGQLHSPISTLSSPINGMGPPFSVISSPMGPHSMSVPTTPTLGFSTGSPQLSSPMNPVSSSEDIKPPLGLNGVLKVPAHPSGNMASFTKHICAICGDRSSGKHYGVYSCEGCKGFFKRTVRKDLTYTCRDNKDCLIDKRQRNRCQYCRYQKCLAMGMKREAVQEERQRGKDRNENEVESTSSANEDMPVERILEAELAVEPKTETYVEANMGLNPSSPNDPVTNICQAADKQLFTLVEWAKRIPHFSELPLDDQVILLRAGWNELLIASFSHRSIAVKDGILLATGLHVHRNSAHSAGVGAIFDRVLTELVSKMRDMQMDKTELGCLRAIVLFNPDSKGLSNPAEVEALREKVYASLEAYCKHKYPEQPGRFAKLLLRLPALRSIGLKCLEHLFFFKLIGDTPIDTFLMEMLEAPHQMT
Experiment: In Vitro FXR Assay (TK): TK-ECRE-luc reporter in transfected CV-1 cells
Type: cell-based
Settings: 18 hrs, luminescence, maximum efficacy of <25% of the Fexarmine control classified as '+'
How it was run: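 Reporter transactivation by hFXR was measured in CV-1 cells carrying hRXR and a TK-ECRE-luc construct, with compound treatment for 18 h before lysis and luminescence detection.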

Row | Compound | EC50 [nM]
1 | COC(=O)O[C@H]1CC[C@H](C(=O)N(C[C@H]2CC[C@H](c3ccc(OC)c(C)n3)CC2)c2cc(-c3coc(C4CC4)n3)ccn2)CC1 [Compound 5.49, trans-4-((4-(2-Cyclopropyloxazol-4-yl)pyridine-2-yl)((trans-4-(5-methoxy-6-methylpyridin-2-yl)cyclohexyl)methyl)carbamoyl)cyclohexyl methyl carbonate] | ≤ 250
2 | CNC(=O)O[C@H]1CC[C@H](C(=O)N(C[C@H]2CC[C@H](c3cnc(OC)c(C)c3)CC2)c2cc(-c3coc(C4CC4)n3)ccn2)CC1 [Compound 5.50, trans-4-((4-(2-Cyclopropyloxazol-4-yl)pyridine-2-yl)((trans-4-(6-methoxy-5-methylpyridin-3-yl)cyclohexyl)methyl)carbamoyl)cyclohexyl methylcarbamate] | ≤ 250
3 | CCc1nc(-c2ccnc(N(C[C@H]3CC[C@H](c4ccc(OC)c(C)n4)CC3)C(=O)[C@H]3CC[C@H](OC(=O)NC)CC3)c2)co1 [Compound 5.51, trans-4-((4-(2-Ethyloxazol-4-yl)pyridin-2-yl)((trans-4-(5-methoxy-6-methylpyridin-2-yl)cyclohexyl)methyl)carbamoyl)cyclohexyl methylcarbamate] | ≤ 250
4 | CNC(=O)O[C@]1(C)CC[C@@H](C(=O)N(C[C@H]2CC[C@H](c3ccc(OC)c(C)c3)CC2)c2cccc(-c3cnn(C(C)C)c3)c2)CC1 [Compound 5.52, trans-4-((3-(1-Isopropyl-1H-pyrazol-4-yl)phenyl)((trans-4-(4-methoxy-3-methylphenyl)cyclohexyl)methyl)carbamoyl)-1-methylcyclohexyl methylcarbamate] | ≤ 250
5 | CNC(=O)O[C@]1(C)CC[C@H](C(=O)N(C[C@H]2CC[C@H](c3ccc(OC)c(C)c3)CC2)c2cccc(-c3cnn(C(C)C)c3)c2)CC1 [Compound 5.53, cis-4-((3-(1-Isopropyl-1H-pyrazol-4-yl)phenyl)(trans-4-(4-methoxy-3-methylphenyl)cyclohexyl)methyl)carbamoyl)-1-methylcyclohexyl methylcarbamate] | ≤ 250
6 | COc1ccc([C@H]2CC[C@H](CN(c3cc(-c4coc(C(C)C)n4)ccn3)C(=O)[C@H]3CC[C@H](OC(=O)N4CCOCC4)CC3)CC2)nc1C [Compound 6, trans-4-((4-(2-Isopropyloxazol-4-yl)pyridine-2-yl)((trans-4-(5-methoxy-6-methylpyridin-2-yl)cyclohexyl)methyl)carbamoyl)cyclohexyl morpholine-4-carboxylate] | ≤ 250
7 | CN(C)c1ccc([C@H]2CC[C@H](CN(c3cccc(-c4cnc(C5CC5)s4)c3)C(=O)[C@H]3CC[C@H](OC(=O)NCCO)CC3)CC2)cn1 [Compound 6.01, 4-((3-(2-Cyclopropylthiazol-5-yl)phenyl) ((trans-4-(6-(dimethylamino)pyridin-3-yl)cyclohexyl)methyl)carbamoyl) cyclohexyl (2-hydroxyethyl)trans-carbamate] | ≤ 250
8 | COc1ccc([C@H]2CC[C@H](CN(c3cc(-c4cnc(C5CC5)s4)ccn3)C(=O)[C@H]3CC[C@H](OC(=O)NCCO)CC3)CC2)cc1C [Compound 6.02, trans-4-((4-(2-Cyclopropylthiazol-5-yl)pyridin-2-yl)((trans-4-(4-methoxy-3-methylphenyl)cyclohexyl)methyl)carbamoyl)cyclohexyl (2-hydroxyethyl) carbamate] | ≤ 250
9 | COc1ccc([C@H]2CC[C@H](CN(c3cc(-c4cnc(C(C)C)s4)ccn3)C(=O)[C@H]3CC[C@H](OC(=O)NCCO)CC3)CC2)cc1C [Compound 6.03, trans-4-((4-(2-Isopropylthiazol-5-yl)pyridin-2-yl)((trans-4-(4-methoxy-3-methylphenyl)cyclohexyl)methyl)carbamoyl)cyclohexyl (2-hydroxyethyl) carbamate] | ≤ 250
10 | COc1ccc([C@H]2CC[C@H](CN(c3cccc(-c4cnc(C(C)C)s4)c3)C(=O)[C@H]3CC[C@H](OC(=O)NCCO)CC3)CC2)nc1C [Compound 6.04, trans-4-((3-(2-Isopropylthiazol-5-yl)phenyl)((trans-4-(5-methoxy-6-methylpyridin-2-yl)cyclohexyl)methyl)carbamoyl)cyclohexyl (2-hydroxyethyl)carbamate] | ≤ 250
11 | COc1ccc([C@H]2CC[C@H](CN(c3cccc(-c4cnc(C(C)C)s4)c3)C(=O)[C@H]3CC[C@H](OC(=O)NCCCO)CC3)CC2)nc1C [Compound 6.05] | ≤ 250
12 | COc1ccc([C@H]2CC[C@H](CN(c3cccc(-c4cnc(C5CC5)s4)c3)C(=O)[C@H]3CC[C@H](OC(=O)NCCO)CC3)CC2)nc1C#N [Compound 6.06, trans-4-(((trans-4-(6-Cyano-5-methoxypyridin-2-yl)cyclohexyl)methyl) (3-(2-cyclopropylthiazol-5-yl)phenyl)carbamoyl)cyclohexyl (2-hydroxyethyl)carbamate] | ≤ 250
13 | COc1ccc([C@H]2CC[C@H](CN(c3cccc(-c4cnc(C5CC5)s4)c3)C(=O)[C@H]3CC[C@H](OC(=O)NCCO)CC3)CC2)nc1C [Compound 6.07, trans-4-((3-(2-Cyclopropylthiazol-5-yl)phenyl)((trans-4-(5-methoxy-6-methylpyridin-2-yl)cyclohexyl)methyl)carbamoyl)cyclohexyl (2-hydroxyethyl)carbamate] | ≤ 250
14 | CN(C)c1ccc([C@H]2CC[C@H](CN(c3cccc(-c4cnn(C5CC5)c4)c3)C(=O)[C@H]3CC[C@H](OC(=O)NCCO)CC3)CC2)cn1 [Compound 6.08, trans-4-((3-(1-Cyclopropyl-1H-pyrazol-4-yl)phenyl)((trans-4-(6-(dimethylamino)pyridin-3-yl)cyclohexyl)methyl)carbamoyl)cyclohexyl (2-hydroxyethyl)carbamate] | ≤ 250
15 | COc1ccc([C@H]2CC[C@H](CN(c3cccc(-c4cnn(C(C)C)c4)c3)C(=O)[C@H]3CC[C@H](OC(=O)NCCO)CC3)CC2)cc1C [Compound 6.09, trans-4-((3-(1-Isopropyl-1H-pyrazol-4-yl)phenyl)((trans-4-(4-methoxy-3-methylphenyl)cyclohexyl)methyl)carbamoyl)cyclohexyl (2-hydroxyethyl) carbamate] | ≤ 250
16 | COCCNC(=O)O[C@H]1CC[C@H](C(=O)N(C[C@H]2CC[C@H](c3ccc(OC)c(C)c3)CC2)c2cccc(-c3cnn(C4CC4)c3)c2)CC1 [Compound 6.10, trans-4-((3-(1-Cyclopropyl-1H-pyrazol-4-yl)phenyl)((trans-4-(4-methoxy-3-methylphenyl)cyclohexyl)methyl)carbamoyl)cyclohexyl (2-methoxyethyl) carbamate] | ≤ 250
17 | COc1ccc([C@H]2CC[C@H](CN(c3cccc(-c4cnn(C5CC5)c4)c3)C(=O)[C@H]3CC[C@H](OC(=O)NC(CO)CO)CC3)CC2)cc1C [Compound 6.11, trans-4-((3-(1-Cyclopropyl-1H-pyrazol-4-yl)phenyl)((trans-4-(4-methoxy-3-methylphenyl)cyclohexyl)methyl)carbamoyl)cyclohexyl (1,3-dihydroxypropan-2-yl)carbamate] | ≤ 250
18 | COc1ccc([C@H]2CC[C@H](CN(c3cccc(-c4cnn(C5CC5)c4)c3)C(=O)[C@H]3CC[C@H](OC(=O)NC[C@H](O)CO)CC3)CC2)cc1C [Compound 6.12, trans-4-((3-(1-Cyclopropyl-1H-pyrazol-4-yl)phenyl)((trans-4-(4-methoxy-3-methylphenyl)cyclohexyl)methyl)carbamoyl)cyclohexyl ((S)-2,3-dihydroxypropyl)carbamate] | ≤ 250
19 | COc1ccc([C@H]2CC[C@H](CN(c3cccc(-c4cnn(C5CC5)c4)c3)C(=O)[C@H]3CC[C@H](OC(=O)NC[C@@H](O)CO)CC3)CC2)cc1C [Compound 6.13, trans-4-((3-(1-Cyclopropyl-1H-pyrazol-4-yl)phenyl)((trans-4-(4-methoxy-3-methylphenyl)cyclohexyl)methyl)carbamoyl)cyclohexyl ((R)-2,3-dihydroxypropyl)carbamate] | ≤ 250
20 | COc1ccc([C@H]2CC[C@H](CN(c3cccc(-c4cnn(C(C)C)c4)c3)C(=O)[C@H]3CC[C@H](OC(=O)NCCCO)CC3)CC2)cc1C [Compound 6.14, trans-4-((3-(1-Isopropyl-1H-pyrazol-4-yl)phenyl)((trans-4-(4-methoxy-3-methylphenyl)cyclohexyl)methyl)carbamoyl)cyclohexyl (3-hydroxypropyl)carbamate] | ≤ 250
21 | COc1ccc([C@H]2CC[C@H](CN(c3cccc(-c4cnn(C(C)C)c4)c3)C(=O)[C@H]3CC[C@H](OC(=O)NCCO)CC3)CC2)nc1C [Compound 6.15, trans-4-((3-(1-Isopropyl-1H-pyrazol-4-yl)phenyl)((trans-4-(5-methoxy-6-methylpyridin-2-yl)cyclohexyl)methyl)carbamoyl)cyclohexyl (2-hydroxyethyl)carbamate] | ≤ 250
